Source: US9511052B2, “Mineralocorticoid receptor antagonists” (Merck Sharp & Dohme Corp., priority 2012, dated 2016)
Values belong to the molecule of their own block, whether it stands above or below them.

How the values were obtained:
[1] = Hepatocyte stability, rhesus monkey; assay type: in vitro ADME; conditions: hepatocytes, read-out: Hepatocyte Stability (t1/2)
[2] = Metabolic stability in liver microsome and hepatocytes of multiple animal species (overall statement); assay type: in vitro ADME
[3] = Hepatocyte stability, human; assay type: in vitro ADME
[4] = Liver microsome stability, human; assay type: in vitro ADME
[5] = target: T1, full-length human Mineralocorticoid Receptor (MR) (Homo sapiens, UniProt P08235); assay: human MR NH Pro assay (PathHunter Protein:Protein interaction assay), MR antagonism; assay type: cell-based; conditions: IP = inflection point of the dose-response curve; CHO-K1 cells overexpressing human MR, aldosterone about 0.3 nM to about 1 nM, 6 hours at 37° C.
T1 construct: host or cells: PathHunter CHO-K1 MR cells
T1 sequence (P08235 1-984): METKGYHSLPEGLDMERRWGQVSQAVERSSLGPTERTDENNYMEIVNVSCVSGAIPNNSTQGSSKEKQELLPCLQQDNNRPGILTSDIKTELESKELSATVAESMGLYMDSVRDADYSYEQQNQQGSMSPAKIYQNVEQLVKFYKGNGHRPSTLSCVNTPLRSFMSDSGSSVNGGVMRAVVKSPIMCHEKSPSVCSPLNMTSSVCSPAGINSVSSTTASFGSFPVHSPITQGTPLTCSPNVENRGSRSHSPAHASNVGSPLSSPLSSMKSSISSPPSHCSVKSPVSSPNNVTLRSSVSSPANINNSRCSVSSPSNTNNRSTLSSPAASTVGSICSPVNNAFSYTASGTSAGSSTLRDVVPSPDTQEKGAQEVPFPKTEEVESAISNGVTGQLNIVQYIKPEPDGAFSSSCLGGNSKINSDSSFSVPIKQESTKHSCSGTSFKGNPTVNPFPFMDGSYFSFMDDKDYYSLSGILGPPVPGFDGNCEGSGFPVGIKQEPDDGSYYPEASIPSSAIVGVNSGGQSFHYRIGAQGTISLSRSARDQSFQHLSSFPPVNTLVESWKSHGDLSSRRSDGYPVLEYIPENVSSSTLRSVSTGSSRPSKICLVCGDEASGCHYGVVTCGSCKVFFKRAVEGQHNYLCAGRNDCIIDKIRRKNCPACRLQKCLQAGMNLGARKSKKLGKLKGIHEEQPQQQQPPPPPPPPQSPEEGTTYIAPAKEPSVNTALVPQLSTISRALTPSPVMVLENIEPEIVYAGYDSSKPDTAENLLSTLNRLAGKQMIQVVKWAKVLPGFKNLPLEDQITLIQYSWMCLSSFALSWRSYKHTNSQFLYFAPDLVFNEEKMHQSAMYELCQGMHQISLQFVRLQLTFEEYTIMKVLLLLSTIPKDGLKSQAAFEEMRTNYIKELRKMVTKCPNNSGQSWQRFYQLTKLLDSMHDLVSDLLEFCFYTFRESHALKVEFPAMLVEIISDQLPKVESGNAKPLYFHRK
From the text: The activity of the compounds of the present invention regarding mineralocorticoid receptor antagonism can be evaluated using the following assay.
Assessment of MR Potency in HMR NH Pro Assay
The human MR NH Pro assay is a commercially available PathHunter™ Protein:Protein interaction assay (DiscoveRx; http://www.discoverx.com/nhrs/prod-nhrs.php) that measures the ability of compounds to antagonize full-length human Mineralocorticoid Receptor (MR) binding to a coactivator peptide.
Stock solution was prepared at 10 μM in DMSO and stored at −20° C. for assay, dilute in assay media to 1.8 or 6 nM (6× of final concentration=about 0.3 nM to about 1.0 nM)
5. Cell line: PathHunter CHO-K1 MR cells Cat #93-0456C2, Lot No: 09B0913, from operation liquid nitrogen stock.
6. Control Antagonist: Spironolactone: Sigma #S-3378 and Eplerenone Sigma #107724-20-9 (10 mM stock concentration also prepared in DMSO and stored at −20° C.).
1. Cells are grown in F12+FBS+Hygromycin+pen/strep+Genetin
2. Cells are collected with 0.05% trypsin and the cell suspension is spun and resuspended in a volume of F12+1.5% CD-FBS and counted.
3. The cells concentration was adjusted to 4×10^5 cells/mL.
4. Cells were (25 μL/well) added to the wells of a 384 well plate.
5. The plate was then incubated at 37° C. over night in a humidified incubator with 5% CO2.
6. Test compounds were titrated starting at 4.4 mM, 10-point titration in 1:3 dilution.
Protocol for 384 well plate format: 6 hr treatment:
1. 10K exponentially growing cells/well (25 μL) were resuspended in assay media and plated into each well using the Multidrop (Thermo Electron) (use white wall, clear bottom assay plates (Costar #3570) and incubated overnight at 37° C., 5% CO2.
2. 0.25 μL 120× test compound (final DMSO concentration should be <1%) was added to each well n=2, 10 point titrations starting at 36.7 μM final concentration.
4. 5 μL of assay media was added to all wells in column 23 and 24.
5. Cells were then incubated for 6 hrs at 37° C., 5% CO2.
6. 15 μL 3× DiscoveRx detection reagent was then added to each well.
7. Plates were incubated for 1 hour at room temperature in the dark.
8. Plates were read on Envision (PerkinElmer) luminesence plate reader and analyzed using ADA.

[6] = Hepatocyte stability, rat; assay type: in vitro ADME; conditions: hepatocytes, read-out: Hepatocyte Stability (t1/2)
[7] = Liver microsome stability, dog; assay type: in vitro ADME; conditions: liver microsomes, read-out: Liver Microsome Stability (t1/2)
[8] = Liver microsome stability, rat; assay type: in vitro ADME; conditions: liver microsomes, read-out: Liver Microsome Stability (t1/2)
[9] = Liver microsome stability, rhesus monkey; assay type: in vitro ADME; conditions: liver microsomes, read-out: Liver Microsome Stability (t1/2)
PK profile in rats = assay type: in vivo, rat; conditions: for clearance / half-life / bioavailability: rat, in vivo; for bioavailability: oral
[10] = Hepatocyte stability, dog; assay type: in vitro ADME; conditions: hepatocytes, read-out: Hepatocyte Stability (t1/2)

half-life [1]: 0.933 h
metabolic stability in liver microsome and hepatocytes of multiple animal species (in words) [2]: good metabolic stability
Hepatocyte Stability (t1/2) ([3]; Human): 1.15 h
Liver Microsome Stability (t1/2) ([4]; Human): 0.8 h
IC50 [5]: 7 nM
half-life [6]: > 1.5 h
half-life [7]: 1.12 h
half-life [8]: 0.883 h
half-life [9]: 0.383 h
PK profile in rats (in words) (PK profile in rats): good PK profile
AUCN po (PK profile in rats): 1.0 µM·kg·h/mg
clearance (PK profile in rats): 18 mL/min/kg
half-life (PK profile in rats): 3.6 h
bioavailability (PK profile in rats): 49%
half-life [10]: 0.75 h
SMILES: CCC(c1ccc(Br)cc1)(C(C)O)n1ncc2c(NS(C)(=O)=O)cccc21 (single isomer, unassigned) [Compound 2, N-(1-(3-(4-bromophenyl)-2-hydroxypentan-3-yl)-1H-indazol-4-yl) methanesulfonamide]

metabolic stability in liver microsome and hepatocytes of multiple animal species (in words) [2]: good metabolic stability
IC50 [5]: 50 nM
PK profile in rats (in words) (PK profile in rats): good PK profile
AUCN po (PK profile in rats): 2.7 µM·kg·h/mg
clearance (PK profile in rats): 14 mL/min/kg
half-life (PK profile in rats): 7 h
bioavailability (PK profile in rats): 98%
SMILES: CC(O)C(CC(F)F)(c1ccc(C(F)(F)F)cc1)n1ncc2c(NS(C)(=O)=O)cccc21 (single isomer, unassigned) [Compound 35, N-(1-(1,1-difluoro-4-hydroxy-3-(4-(trifluoromethyl)phenyl)pentan-3-yl)-1H-indazol-4-yl)methanesulfonamide]

half-life [1]: > 1.5 h
half-life ([3]; human, hepatocytes, read-out: Hepatocyte Stability (t1/2)): > 1.5 h
half-life ([4]; human, liver microsomes, read-out: Liver Microsome Stability (t1/2)): 1.43 h
IC50 [5]: 66 nM
half-life [6]: > 1.5 h
half-life [7]: 0.967 h
half-life [8]: 2.03 h
half-life [9]: 2.05 h
half-life [10]: 1.32 h
SMILES: CC(O)C(CC(F)F)(c1ccc(C(F)(F)F)cc1)n1ncc2c(NS(C)(=O)=O)cccc21 (single isomer, unassigned) [Compound 37, N-(1-(1,1-difluoro-4-hydroxy-3-(4-(trifluoromethyl)phenyl)pentan-3-yl)-1H-indazol-4-yl)methanesulfonamide]

IC50 [5]: 274 nM
SMILES: CS(=O)(=O)Nc1cccc2c1cnn2C(CC(F)F)(C(N)=O)c1ccc(C(F)(F)F)cc1 (single isomer, unassigned) [Compound 45, 4,4-difluoro-2-(4-(methylsulfonamido)-1H-indazol-1-yl)-2-(4-(trifluoromethyl)phenyl)butanamide]

IC50 [5]: 6 nM
SMILES: CCC(c1ccc(C(F)(F)F)cc1)(C(O)C(F)F)n1ncc2c(NS(C)(=O)=O)cccc21 (single isomer, unassigned) [Compound 48, N-(1-(1,1-difluoro-2-hydroxy-3-(4-(trifluoromethyl)phenyl)pentan-3-yl)-1H-indazol-4-yl)methanesulfonamide]

IC50 [5]: 7 nM
SMILES: CCC(c1ccc(C(F)(F)F)cc1)(C(O)C(F)F)n1ncc2c(NS(=O)(=O)CC)cccc21 (single isomer, unassigned) [Compound 49, N-(1-(1,1-difluoro-2-hydroxy-3-(4-(trifluoromethyl)phenyl)pentan-3-yl)-1H-indazol-4-yl)ethanesulfonamide]

IC50 [5]: 4 nM
SMILES: CCC(c1ccc(C(F)(F)F)cc1)(C(O)C(F)F)n1ncc2c(NS(=O)(=O)CC)cccc21 (single isomer, unassigned) [Compound 50, N-(1-(1,1-difluoro-2-hydroxy-3-(4-(trifluoromethyl)phenyl)pentan-3-yl)-1H-indazol-4-yl)ethanesulfonamide]

IC50 [5]: 13 nM
SMILES: CCC(c1ccc(C(F)(F)F)cc1)(C(O)C(F)F)n1ncc2c(NS(C)(=O)=O)cc(F)cc21 (single isomer, unassigned) [Compound 51, N-(1-(1,1-difluoro-2-hydroxy-3-(4-(trifluoromethyl)phenyl)pentan-3-yl)-6-fluoro-1H-indazol-4-yl) methanesulfonamide]

IC50 [5]: 28 nM
SMILES: CCC(c1ccc(C(F)(F)F)cc1)(C(O)C(F)F)n1ncc2c(NS(C)(=O)=O)cc(F)cc21 (single isomer, unassigned) [Compound 52, N-(1-(1,1-difluoro-2-hydroxy-3-(4-(trifluoromethyl)phenyl)pentan-3-yl)-6-fluoro-1H-indazol-4-l) methanesulfonamide]

IC50 [5]: 11 nM
SMILES: CCC(c1ccc(C(F)(F)F)cc1)(C(O)C(F)F)n1ncc2c(NS(=O)(=O)CC)cc(F)cc21 (single isomer, unassigned) [Compound 53, N-(1-(1,1-difluoro-2-hydroxy-3-(4-(trifluoromethyl)phenyl)pentan-3-yl)-6-fluoro-1H-indazol-4-yl)ethanesulfonamide]

IC50 [5]: 12 nM
SMILES: CCC(c1ccc(C(F)(F)F)cc1)(C(O)C(F)F)n1ncc2c(NS(=O)(=O)CC)cc(F)cc21 (single isomer, unassigned) [Compound 54, N-(1-(1,1-difluoro-2-hydroxy-3-(4-(trifluoromethyl)phenyl)pentan-3-yl)-6-fluoro-1H-indazol-4-l)ethanesulfonamide]

IC50 [5]: 18 nM
SMILES: CCC(O)C(CC(F)F)(c1ccc(C(F)(F)F)cc1)n1ncc2c(NS(=O)(=O)CC)cccc21 (single isomer, unassigned) [Compound 55, N-(1-(1,1-difluoro-4-hydroxy-3-(4-(trifluoromethyl)phenyl)hexan-3-yl)-1H-indazol-4-yl)ethanesulfonamide]

IC50 [5]: 10 nM
SMILES: CCC(O)C(CC(F)F)(c1ccc(C(F)(F)F)cc1)n1ncc2c(NS(=O)(=O)CC)cccc21 (single isomer, unassigned) [Compound 56, N-(1-(1,1-difluoro-4-hydroxy-3-(4-(trifluoromethyl)phenyl)hexan-3-yl)-1H-indazol-4-yl)ethanesulfonamide]

IC50 [5]: 43 nM
SMILES: CCS(=O)(=O)Nc1cccc2c1cnn2C(CC(F)F)(c1ccc(C(F)(F)F)cc1)C(C)O (single isomer, unassigned) [Compound 57, N-(1-(1,1-difluoro-4-hydroxy-3-(4-(trifluoromethyl)phenyl)pentan-3-yl)-1H-indazol-4-yl)ethanesulfonamide]

IC50 [5]: 38 nM
SMILES: CCS(=O)(=O)Nc1cccc2c1cnn2C(CC(F)F)(c1ccc(C(F)(F)F)cc1)C(C)O (single isomer, unassigned) [Compound 58, N-(1-(1,1-difluoro-4-hydroxy-3-(4-(trifluoromethyl)phenyl)pentan-3-yl)-1H-indazol-4-yl)ethanesulfonamide]
